Laboratory results as given in patent US20150086646A1, “ANESTHETIC NEUTRALIZATION METHODS” (Instigo Biotech Ltd., priority 2012, published 2015).

Test system: Male rats (SD Rat)
Test: Paw thermal sensitivity (Plantar test) in rats after regional anesthesia of the sciatic and saphenous nerves
Type: in vivo
Conditions: for response time (average time before lifting the treated limb) / response time relative to group 2 (anesthetic + buffer): 150 microliters at each locus; for response time (average time before lifting the treated limb): 7 min after lidocaine HCl 2%/epinephrine 1:100,000, 5 minutes after administration, anesthetic + buffer group 20-35 seconds, no-anesthetic control 4-6 seconds; for elimination of effects of regional anesthesia (overall conclusion of the model): rat model, lidocaine HCl 2%/epinephrine 1:100,000 nerve block
Method: An animal model was performed to test ROS/RNS dosages and effects on sensory anesthesia following administration of regional anesthesia, as follows. Male rats (SD Rat) weighing between 300-350 grams, were supplied by Harlan, Israel, and were randomly assigned to experimental groups. Rats were provided with sterile rodent diet with free access to drinking water. In the animal model, a testing chamber (Plantar test 3730 apparatus, made by Ugo Basile) was used in which the rats were placed on a surface which is heated and increases heat gradually. A measurement of time from placement of the rat's hind limb on the hot surface to lifting the hind limb was recorded. […] All rats were habituated to the testing facilities for five days before the model, and then introduced into the testing chamber two days prior to the testing of regional anesthesia in order to habituate rats to the apparatus. One day prior to regional anesthetic administration, baseline body weight measurements and baseline paw thermal sensitivity were recorded. Rats were randomly divided into 7 groups having 4 rats in each group. Group 1 was not administered anesthesia, but was administered saline solution as a vehicle at the time of regional anesthetic administration to groups 2-7. Groups 2 through 7 were administered lidocaine HCl 2%/epinephrine 1:100,000 ready to use solution (hereinafter, “anesthetic,”) 7 minutes before administering test items. Regional anesthetic was injected around the sciatic and saphenous nerves at a volume of 150 microliters at each site of the rat's left hind limb. Injection around the saphenous nerve was performed via local injection to/next to the adductor canal which runs on the medial aspect of the thigh between the vastus medialis and the sartorius muscles, about 2-3 cm below the inguinal canal. Injection around the sciatic nerve was performed via local injection to the sciatic notch, positioned 1 mm from the femoral shaft between the greater trochanter and ischial tuberosity pointing toward the ischium. Five minutes after injection of regional anesthetic, an assessment of the nerve blocks was performed by pinching the rat's paw to determine if the regional anesthetics were properly administered. Seven minutes after regional anesthetic administration, test agents were administered to the same loci, in a volume of 150 microliters at each locus. Groups 1 and 2 were administered a vehicle buffer as test agents. Group 3 was administered 0.1 mM hydrogen peroxide, formulated in saline solution. […] PON which was administered to rats was prepared by commercially available sodium peroxynitrite in NaCl and NaOH each at a concentration of 0.3 molar, available from Cayman Chemical. The commercially available PON was diluted to the desired concentrations for injection, by forming a suspension in 0.3M NaCl, 0.1M glycine having a pH of 10.5. All rats were tested for paw thermal sensitivity at 5, 10, 15, 20, 60 and 120 minutes after administration of the test items using the testing chamber. The results of average time before lifting the treated limb in each rat for each time point was calculated and is depicted in FIG. 2.

O=NOO [PON, sodium peroxynitrite]
response time (average time before lifting the treated limb) (group 4: PON 40 mM): 4 to 6 s
response time (average time before lifting the treated limb) (group 5: PON 10 mM): 4 to 6 s
response time relative to group 2 (anesthetic + buffer) (group 6: PON 1 mM, 5 and 10 minute time points): improved response time
elimination of effects of regional anesthesia (overall conclusion of the model): effective in quickly eliminating effects of regional anesthesia

OO [H2O2, hydrogen peroxide]
response time relative to group 2 (anesthetic + buffer) (group 3: 0.1 mM hydrogen peroxide in saline, 5, 10 and 15 minute time points): decreased response time
statistical significance of the effect on response time (group 3: 0.1 mM hydrogen peroxide, 4 rats per group): not statistically significant
elimination of effects of regional anesthesia (overall conclusion of the model): effective in quickly eliminating effects of regional anesthesia
